SMILES strings stand for the structures.

This assay relates to IL-6. The experiment in a line: LPS-induced IL-6 expression in mouse bone marrow-derived dendritic cells, ELISA. Format: cell-based. The conditions noted are these: DCs co-treated with LPS and BrDs at 20 μM. From the text:
For mouse bone marrow-derived DCs (BMDCs), five to six-week-old female C57BL/6JNarl mice were purchased from the National Laboratory Animal Center, Taiwan and kept under SPF conditions. BMDCs were generated from bone marrow cells of C57BL/6 mice as described previously (Yin S Y, Wang W H, Wang B X, Aravindaram K, Hwang P I, Wu H M, Yang N S. BMC genomics 2010, 11:612). In brief, bone marrow was isolated from femurs and tibiae which were then flushed with RPMI-1640 medium using a syringe with a 0.45-mm needle on Day 0. Red blood cells in suspension were lysed for […] with ACK lysing buffer (150 mM NH4Cl, 1.0 mM KHCO3, 0.1 mM EDTA). Bone marrow cells were suspended at a density of 1×10^7 cells/30 ml in RPMI-1640 containing 10% FBS, 2 mM L-glutamine, 1% of nonessential amino acids, 100 U/mL penicillin and 100 μg/mL streptomycin supplemented with 20 ng/mL of mGM-CSF in 15-cm dishes at 37° C. with 5% CO2. On day 2, two-thirds of the medium was removed and 30 mL fresh medium with mGM-CSF was added to the cells. On day 5, culture plates were gently swirled and the floating and loosely adherent cells were discarded. Aliquots of 75% culture media were replenished with 20 ng/mL mGM-CSF and 20 ng/mL mIL-4. On day 7, mouse BMDCs (95% pure CD11b and MHC II) were harvested and incubated in RPMI 1640 medium containing 1 mM sodium pyruvate, 0.1 mM nonessential amino acids, 100 U/ml penicillin, 100 μg/ml streptomycin, and supplemented with 10% fetal bovine serum (Invitrogen, Carlsbad, Calif.) for 24 h at 37° C. with or without test chemicals in the presence or absence of LPS (100 ng/ml).
BMDCs were treated with or without test chemicals in the presence or absence of LPS (100 ng/ml) for 24 h at 37° C. Aliquots of supernatants from DC cultures were assayed for IL-6 and TNF-α using commercial ELISA kits (R&D Systems, Minneapolis, Minn.) following the manufacturer's recommendations.
Several studies have reported that the secretion of specific cytokines, including IL-1β, TNF-α and IL-6 by keratinocytes and various immune cells is involved in cutaneous inflammation (Nestle F O, Di Meglio P, Qin J Z, Nickoloff B J. Nature reviews Immunology 2009, 9:679-691; De Vry C G, Valdez M, Lazarov M, Muhr E, Buelow R, Fong T, Iyer S. J Invest Dermatol 2005, 125:473-481; Cumberbatch M, Dearman R J, Kimber I. Immunology 1996, 87:513-518). In order to investigate the anti-inflammatory effect of BrD1 on cytokine expression, mouse bone marrow-derived dendritic cells were used to evaluate the inhibitory effect of BrD1 on LPS-induced expressions of TNF-α and IL-6. In our time-course study for expression of TNF-α and IL-6, after LPS stimulation, a high expression of TNF-α and IL-6 was maintained at 24 h (FIG. 6A). We therefore chose 24 h as the time point at which to assess the expression of TNF-α and IL-6.
In the case of `CCCCC(=O)O[C@H]1C[C@H](OC(C)=O)[C@@]2(C)[C@H]([C@H]1C)[C@H](OC(C)=O)[C@]13O[C@@]1(C)C(=O)O[C@H]3/C=C(/C)C[C@H](OC(=O)CCC)[C@@H]2OC(C)=O` [BrD1-5C], the “inhibition of LPS-induced IL-6 expression (structure-activity relationship)” value is “inhibitory activity gradually decreased”.
For `CCCCCC(=O)O[C@H]1C[C@H](OC(C)=O)[C@@]2(C)[C@H]([C@H]1C)[C@H](OC(C)=O)[C@]13O[C@@]1(C)C(=O)O[C@H]3/C=C(/C)C[C@H](OC(=O)CCC)[C@@H]2OC(C)=O` [BrD1-6C] the value was “inhibitory activity gradually decreased”; for `CCCCCCC(=O)O[C@H]1C[C@H](OC(C)=O)[C@@]2(C)[C@H]([C@H]1C)[C@H](OC(C)=O)[C@]13O[C@@]1(C)C(=O)O[C@H]3/C=C(/C)C[C@H](OC(=O)CCC)[C@@H]2OC(C)=O` [BrD1-7C], “inhibitory activity gradually decreased”; for `CCCCCCCCCC(=O)O[C@H]1C[C@H](OC(C)=O)[C@@]2(C)[C@H]([C@H]1C)[C@H](OC(C)=O)[C@]13O[C@@]1(C)C(=O)O[C@H]3/C=C(/C)C[C@H](OC(=O)CCC)[C@@H]2OC(C)=O` [BrD1-10C], “inhibitory activity gradually decreased”.
